# ± gives the standard deviation of the averaged measurements.
# Columns and labels:
# CAMPTOTHECIN [1] = compound: T1, CC[C@@]1(O)C(=O)OCc2c1cc1n(c2=O)Cc2cc3ccccc3nc2-1 [CAMPTOTHECIN]; assay: surviving fraction relative to DMSO-only wells; higher = less growth inhibition; conditions: exposure time: 5 days
# How it was run: (§1)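 Surviving fraction is CellTiter-Glo luminescence divided by the median of wells given DMSO only. For this, log-phase tumour cell lines went into 384-well plates at 250–500 cells per well and, 24 hours later, into five days of continuous inhibitor exposure at 0.5, 1, 5, 10, 50, 100, 500 and 1000 nM. Lines were screened three times and retained only if replicate Pearson r >0.7 and median Z' >0.3.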
# CELECOXIB [2] = compound: T2, Cc1ccc(-c2cc(C(F)(F)F)nn2-c2ccc(S(N)(=O)=O)cc2)cc1 [CELECOXIB]; assay: as above; conditions: exposure time: 5 days
# How it was run: as §1
# [3] = compound: CC(=O)NCC(=O)N1[C@@H]2CC[C@H]1c1ccc(Nc3ncc(C(F)(F)F)c(NC4CCC4)n3)cc12; assay: as above; conditions: exposure time: 5 days
# How it was run: as §1
# PACLITAXEL [4] = compound: T3, CC(=O)O[C@H]1C(=O)[C@@]2(C)[C@H]([C@H](OC(=O)c3ccccc3)[C@]3(O)C[C@H](OC(=O)[C@H](O)[C@@H](NC(=O)c4ccccc4)c4ccccc4)C(C)=C1C3(C)C)[C@]1(OC(C)=O)CO[C@@H]1C[C@@H]2O [PACLITAXEL]; assay: as above; conditions: exposure time: 5 days
# How it was run: as §1
# [5] = compound: CC(=O)c1c(C)c2cnc(Nc3ccc(N4CCNCC4)cn3)nc2n(C2CCCC2)c1=O; assay: as above; conditions: exposure time: 5 days
# How it was run: as §1
# CARBOPLATIN [6] = compound: T4, O=C(O)C1(C(=O)O)CCC1.[NH2-].[NH2-].[Pt+2] [CARBOPLATIN]; assay: as above; conditions: exposure time: 5 days
# How it was run: as §1
# GEFITINIB [7] = compound: T5, COc1cc2ncnc(Nc3ccc(F)c(Cl)c3)c2cc1OCCCN1CCOCC1 [GEFITINIB]; assay: as above; conditions: exposure time: 5 days
# How it was run: as §1
# YM155 [8] = compound: T6, COCC[n+]1c2c(n(Cc3cnccn3)c1C)C(=O)c1ccccc1C2=O [YM155]; assay: as above; conditions: exposure time: 5 days
# How it was run: as §1
# OSI-906 [9] = compound: T7, C[C@]1(O)C[C@@H](c2nc(-c3ccc4ccc(-c5ccccc5)nc4c3)c3c(N)nccn32)C1 [OSI-906]; assay: as above; conditions: exposure time: 5 days
# How it was run: as §1
# CAMPTOTHECIN [10] = compound: T1, CAMPTOTHECIN; assay: area under dose-response curve of surviving fraction (unscaled, Aref=0) (surviving fraction x log10(nM)); higher = more resistant; conditions: exposure time: 5 days; dose range 0.5-1000 nM
# How it was run: (§2)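 Each tumour cell line was screened three times in 384-well plates, receiving eight inhibitor concentrations from 0.5 to 1000 nM for five days. CellTiter-Glo luminescence gave viability, normalised to DMSO-only wells. Using the drc R package, surviving fractions were fitted with 3-parameter logistic dose-response curves, and the unscaled activity area over log10 dose (Aref = 0) was taken as the area under the curve.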
# CELECOXIB [11] = compound: T2, CELECOXIB; assay: as above; conditions: exposure time: 5 days; dose range 0.5-1000 nM
# How it was run: as §2
# [12] = compound: CC(=O)NCC(=O)N1[C@@H]2CC[C@H]1c1ccc(Nc3ncc(C(F)(F)F)c(NC4CCC4)n3)cc12; assay: as above; conditions: exposure time: 5 days; dose range 0.5-1000 nM
# How it was run: as §2
# PACLITAXEL [13] = compound: T3, PACLITAXEL; assay: as above; conditions: exposure time: 5 days; dose range 0.5-1000 nM
# How it was run: as §2
# [14] = compound: CC(=O)c1c(C)c2cnc(Nc3ccc(N4CCNCC4)cn3)nc2n(C2CCCC2)c1=O; assay: as above; conditions: exposure time: 5 days; dose range 0.5-1000 nM
# How it was run: as §2
# CARBOPLATIN [15] = compound: T4, CARBOPLATIN; assay: as above; conditions: exposure time: 5 days; dose range 0.5-1000 nM
# How it was run: as §2
# GEFITINIB [16] = compound: T5, GEFITINIB; assay: as above; conditions: exposure time: 5 days; dose range 0.5-1000 nM
# How it was run: as §2
# YM155 [17] = compound: T6, YM155; assay: as above; conditions: exposure time: 5 days; dose range 0.5-1000 nM
# How it was run: as §2
# OSI-906 [18] = compound: T7, OSI-906; assay: as above; conditions: exposure time: 5 days; dose range 0.5-1000 nM
# How it was run: as §2
test system,measurement,setting,value
DU4475 BREAST,surviving fraction,CAMPTOTHECIN [1]; 0.5 nM,0.759 ± 0.11
same,surviving fraction,CAMPTOTHECIN [1]; 1 nM,0.643 ± 0.064
same,surviving fraction,CAMPTOTHECIN [1]; 5 nM,0.28 ± 0.055
same,surviving fraction,CAMPTOTHECIN [1]; 10 nM,0.135 ± 0.018
same,surviving fraction,CAMPTOTHECIN [1]; 50 nM,0.0357 ± 0.0042
same,surviving fraction,CAMPTOTHECIN [1]; 100 nM,0.0227 ± 0.0045
same,surviving fraction,CAMPTOTHECIN [1]; 500 nM,0.0217 ± 0.0015
same,surviving fraction,CAMPTOTHECIN [1]; 1000 nM,0.0247 ± 0.0025
same,surviving fraction,CELECOXIB [2]; 0.5 nM,0.894 ± 0.08
same,surviving fraction,CELECOXIB [2]; 1 nM,0.836 ± 0.06
same,surviving fraction,CELECOXIB [2]; 5 nM,0.943 ± 0.095
same,surviving fraction,CELECOXIB [2]; 10 nM,0.937 ± 0.014
same,surviving fraction,CELECOXIB [2]; 50 nM,0.876 ± 0.051
same,surviving fraction,CELECOXIB [2]; 100 nM,0.892 ± 0.12
same,surviving fraction,CELECOXIB [2]; 500 nM,0.973 ± 0.18
same,surviving fraction,CELECOXIB [2]; 1000 nM,0.872 ± 0.015
same,surviving fraction,[3]; 0.5 nM,0.776 ± 0.12
same,surviving fraction,[3]; 1 nM,0.802 ± 0.15
same,surviving fraction,[3]; 5 nM,0.821 ± 0.16
same,surviving fraction,[3]; 10 nM,0.783 ± 0.2
same,surviving fraction,[3]; 50 nM,0.49 ± 0.36
same,surviving fraction,[3]; 100 nM,0.131 ± 0.097
same,surviving fraction,[3]; 500 nM,0.0413 ± 0.016
same,surviving fraction,[3]; 1000 nM,0.0397 ± 0.0038
same,surviving fraction,PACLITAXEL [4]; 0.5 nM,0.975 ± 0.17
same,surviving fraction,PACLITAXEL [4]; 1 nM,0.946 ± 0.26
same,surviving fraction,PACLITAXEL [4]; 5 nM,0.243 ± 0.069
same,surviving fraction,PACLITAXEL [4]; 10 nM,0.129 ± 0.021
same,surviving fraction,PACLITAXEL [4]; 50 nM,0.0387 ± 0.013
same,surviving fraction,PACLITAXEL [4]; 100 nM,0.044 ± 0.0089
same,surviving fraction,PACLITAXEL [4]; 500 nM,0.0463 ± 0.02
same,surviving fraction,PACLITAXEL [4]; 1000 nM,0.035 ± 0.0085
same,surviving fraction,[5]; 0.5 nM,1.11 ± 0.15
same,surviving fraction,[5]; 1 nM,1.23 ± 0.076
same,surviving fraction,[5]; 5 nM,1.08 ± 0.17
same,surviving fraction,[5]; 10 nM,1.08 ± 0.31
same,surviving fraction,[5]; 50 nM,1.03 ± 0.3
same,surviving fraction,[5]; 100 nM,0.997 ± 0.36
same,surviving fraction,[5]; 500 nM,1.02 ± 0.32
same,surviving fraction,[5]; 1000 nM,0.951 ± 0.32
same,surviving fraction,CARBOPLATIN [6]; 0.5 nM,1.03 ± 0.064
same,surviving fraction,CARBOPLATIN [6]; 1 nM,0.931 ± 0.032
same,surviving fraction,CARBOPLATIN [6]; 5 nM,1.08 ± 0.23
same,surviving fraction,CARBOPLATIN [6]; 10 nM,1.04 ± 0.089
same,surviving fraction,CARBOPLATIN [6]; 50 nM,0.909 ± 0.029
same,surviving fraction,CARBOPLATIN [6]; 100 nM,0.975 ± 0.18
same,surviving fraction,CARBOPLATIN [6]; 500 nM,0.895 ± 0.06
same,surviving fraction,CARBOPLATIN [6]; 1000 nM,1.03 ± 0.035
same,surviving fraction,GEFITINIB [7]; 0.5 nM,0.921 ± 0.068
same,surviving fraction,GEFITINIB [7]; 1 nM,0.955 ± 0.045
same,surviving fraction,GEFITINIB [7]; 5 nM,0.82 ± 0.095
same,surviving fraction,GEFITINIB [7]; 10 nM,0.914 ± 0.01
same,surviving fraction,GEFITINIB [7]; 50 nM,0.879 ± 0.14
same,surviving fraction,GEFITINIB [7]; 100 nM,0.906 ± 0.16
same,surviving fraction,GEFITINIB [7]; 500 nM,1.01 ± 0.1
same,surviving fraction,GEFITINIB [7]; 1000 nM,0.889 ± 0.069
same,surviving fraction,YM155 [8]; 0.5 nM,0.934 ± 0.11
same,surviving fraction,YM155 [8]; 1 nM,0.805 ± 0.044
same,surviving fraction,YM155 [8]; 5 nM,0.839 ± 0.08
same,surviving fraction,YM155 [8]; 10 nM,0.903 ± 0.21
same,surviving fraction,YM155 [8]; 50 nM,0.108 ± 0.025
same,surviving fraction,YM155 [8]; 100 nM,0.0437 ± 0.008
same,surviving fraction,YM155 [8]; 500 nM,0.0273 ± 0.0015
same,surviving fraction,YM155 [8]; 1000 nM,0.0337 ± 0.0038
same,surviving fraction,OSI-906 [9]; 0.5 nM,0.863 ± 0.18
same,surviving fraction,OSI-906 [9]; 1 nM,0.825 ± 0.18
same,surviving fraction,OSI-906 [9]; 5 nM,0.726 ± 0.089
same,surviving fraction,OSI-906 [9]; 10 nM,0.786 ± 0.12
same,surviving fraction,OSI-906 [9]; 50 nM,0.785 ± 0.18
same,surviving fraction,OSI-906 [9]; 100 nM,0.553 ± 0.043
same,surviving fraction,OSI-906 [9]; 500 nM,0.41 ± 0.024
same,surviving fraction,OSI-906 [9]; 1000 nM,0.36 ± 0.08
same,area under dose-response curve,CAMPTOTHECIN [10],0.671
same,area under dose-response curve,CELECOXIB [11],2.98
same,area under dose-response curve,[12],1.69
same,area under dose-response curve,PACLITAXEL [13],0.884
same,area under dose-response curve,[14],3.51
same,area under dose-response curve,CARBOPLATIN [15],3.22
same,area under dose-response curve,GEFITINIB [16],3.01
same,area under dose-response curve,YM155 [17],1.66
same,area under dose-response curve,OSI-906 [18],2.23

# Source: the supplement of paper PMC6045584
